This is an account of results in patent US20240374510A1, “COMPOSITIONS, USES AND METHODS FOR TREATMENT OF PERIODONTAL DISEASE” (THE UNIVERSITY OF BRITISH COLUMBIA, priority 2023, published 2024).

In data set [1] the test system is ITGB6. As to conditions: Bi et al., 2020; cited from earlier work.
A short description of data set [2]: In-vitro release rate of gefitinib by the dialysis sack method. To be noted: artificial saliva and cell culture medium. Type of data set: physicochemical. The protocol:
The release rate of gefitinib from microparticles as described herein into each of two different liquids was tested. The two test liquids were: artificial saliva (SAE0149, Sigma Aldrich) and Dulbecco's Modified Eagle Medium (DMEM; Gibco, Life Technologies, Inc., Burlington, ON, Canada). These liquids were used to simulate the environment of the oral cavity and body fluid, respectively.
In each of these in-vitro experiments, a dry powder of spray-dried microparticles according to one of the tested formulations was mixed into the applicable test liquid at a concentration of 20 μg dry powder per ml of test liquid.
The in-vitro release behaviors of the formulations identified as (*1), (*2), (*3), and (*4) in Table 2 were each tested by the dialysis sack method (cutoff molecular weight 8 kDa; Spectra Por; Spectrum Chemical Mfg. Corp., New Brunswick, NJ, USA). All samples were incubated at room temperature with continuous shaking at 70 rpm. […] The fluid was analyzed for gefitinib content by HPLC. The release rate of gefitinib from suspensions of dry powders in liquid was calculated from the ratio of released gefitinib to the total gefitinib encapsulated in the powders.
The release rate of unencapsulated gefitinib was measured according to the same protocol described above for the spray-dried microparticles.

Data set [3] concerns human gingival epithelial cell line (GEC). Kind of data set: MTT test of cell viability and proliferation. In kind it is cell-based. To be noted: 24 h, unencapsulated gefitinib. On the procedure: The spontaneously immortalized human gingival epithelial cell line (GEC; (Mäkelä et al., 1998)) was maintained in a humidified incubator at +37° C. with 95% relative humidity and 5% CO2 in DMEM supplemented with 23 mM sodium bicarbonate, 20 mM HEPES, 50 μg/ml streptomycin sulfate, 100 U/ml penicillin and 10% heat-inactivated fetal bovine serum (FBS; Gibco). […]
The MTT test (CellTiter Non-radioactive Cell Proliferation Assay, Promega, Madison, WI, USA) was used to assess the effect of the microparticle formulations on cell viability and proliferation (Twarużek et al., 2018). […] The Solubilization/Stop Solution was then added to the culture wells for 24 h to solubilize the formazan product, and the absorbance at 570 nm was recorded with a microplate reader (iMark, Bio-Rad Laboratories, Hercules, CA, USA). […]
In each test, the cells were exposed to the formulation being tested for 24 h and then analyzed for cell numbers using the MTT test. Absorbance values of the untreated samples in each replicate experiment were set to 1, and the mean±s.e.m. of the relative results of 10-18 replicated experiments is presented. *, relative to untreated cells; +, difference between the same concentration of gefitinib and control microparticles; */+, p<0.05; **/++, p<0.01; ***/+++, p<0.001. […]
Background: Tetrazolium assays rely on reduction of a dye to a coloured formazan, in cell work by metabolically active cells.

Data set [4] deals with ITGB6. Kind of data set: Rescue of β6 integrin gene expression in GECs by RT-qPCR. Type of data set: cell-based, human. The protocol:
GECs were seeded into cell culture dishes and allowed to grow to confluency for two days in their complete growth medium. The cells were then rinsed once with PBS and switched to FBS-free DMEM for 2 h in the presence or absence of one of: one of the suspensions of gefitinib-microparticles as above, one of the suspensions of respective control microparticles as above or 0.3 μM gefitinib. HB-EGF (5 ng/ml) and TGF-β1 (2 ng/ml; Millipore) were then added to the cells for a further 24 h.
The cells were then rinsed with PBS and used for RNA isolation and quantitative real-time reverse transcription PCR (RT-qPCR). Briefly, total RNA was extracted using PuroSPIN™ MINI Spin Columns (Luna Nanotech, Inc., Markham, ON, Canada) and the LogSpin method (Yaffe et al., 2012), and RNA concentration and purity were determined by spectrophotometry (NanoDrop One, Thermo Fisher Scientific, Waltham, MA, USA). 1 μg of total RNA was reverse-transcribed into cDNA using the High-Capacity cDNA Reverse Transcription Kit (Applied Biosystems, Thermo Fisher Scientific). […]
Asparagine-linked glycosylation 9 (ALG9) and glyceraldehyde-3-phosphate dehydrogenase (GAPDH) were used as reference genes for the target gene ITGB6 in triplicates. […] The data were analyzed using the Applied Biosystems Relative Quantification Analysis Module. […]

For `C=CC(=O)Nc1cc2c(Nc3ccc(F)c(Cl)c3)ncnc2cc1OCCCN1CCOCC1` [canertinib], the “blocking of ITGB6 downregulation by HB-EGF” value (shortened to “blocking”) with ITGB6 [1] is recorded as “capable of dose-dependently blocking ITGB6 downregulation”. Turning to `COc1cc2ncnc(Nc3ccc(F)c(Cl)c3)c2cc1NC(=O)/C=C/CN1CCCCC1` [dacomitinib], in the data set on ITGB6 [1], the “blocking” value was “capable of dose-dependently blocking ITGB6 downregulation”.

As to `C#Cc1cccc(Nc2ncnc3cc(OCCOC)c(OCCOC)cc23)c1` [erlotinib], in the data set on ITGB6 [1], the “blocking” value is “capable of dose-dependently blocking ITGB6 downregulation”. For `COc1cc2ncnc(Nc3ccc(F)c(Cl)c3)c2cc1OCCCN1CCOCC1` [gefitinib], the “release rate of gefitinib, in words” value in data set [2] is listed as “quickly released”. The “gefitinib concentration giving the corresponding GEC growth inhibition (baseline levels)” value in data set [3] is 0.3 µM. Further, the “blocking” value in the data set with ITGB6 [1] was “capable of dose-dependently blocking ITGB6 downregulation”. Consider `CS(=O)(=O)CCNCc1ccc(-c2ccc3ncnc(Nc4ccc(OCc5cccc(F)c5)c(Cl)c4)c3c2)o1` [lapatinib], for which the “blocking” value in the data set on ITGB6 [1] is listed as “capable of dose-dependently blocking ITGB6 downregulation”.

Turning to “TGF-β1: transforming growth factor-β1, used to upregulate ITGB6”, the “upregulation of ITGB6 expression” value in the data set with ITGB6 [4] (TGF-β1 alone, 2 ng/ml, 24 h) was “about seven-fold”.

B1: HB-EGF: EGFR ligand heparin-binding EGF-like growth factor (protein, UniProt Q99075 63-148, looked up)
Heparin-binding EGF-like …: DLQEADLDLLRVTLSSKPQALATPNKEEHGKRKKKGKGLGKKRDPCLRKYKDFCIHGECKYVKELRAPSCICHPGYHGERCHGLSL
With B1, the “reduction of the TGF-β1 upregulation of ITGB6” value in the data set on ITGB6 [4] (addition of HB-EGF 5 ng/ml to TGF-β1) is “about 60%”.
